Measurements as given in patent US9744220B2, “Compositions and methods for treating inflammatory diseases” (priority 2013, dated 2017).

B1: truncated PDNF corresponding to amino acids 1-445 of SEQ ID NO:2: bacterially-expressed truncated PDNF, amino acids 1-445 of SEQ ID NO:2 (protein, listed as Trypanosoma cruzi)
chain: MGKTVVVASRMFWLMFFVPLLLAICPSEPAYALAPGSSRVELFKRKNSTVPFEDKAGKVTERVVHSFRLPALVNVDGVMVAIADARYDTSNDNSLIDTVAKYSVDDGETWETQIAIKNSRVSSVSRVVDPTVIVKGNKLYVLVGSYYSSRSYWSSHGDARDWDILLAVGEVTKSTAGGKITASIKWGSPVSLKKFFPAEMEGMHTNQFLGGAGVAIVASNGNLVYPVQVTNKKKQVFSKIFYSEDDGKTWKFGKGRSDFGCSEPVALEWEGKLIINTRVDWKRRLVYESSDMEKPWVEAVGTVSRVWGPSPKSNQPGSQSSFTAVTIEGMRVMLFTHPLNFKGRWLRDRLNLWLTDNQRIYNVGQVSIGDENSAYSSVLYKDDKLYCLHEINTDEVYSLVFARLVGELRIIKSVLRSWKNWDSHLSSICTPADPAASSSESGCGP
B2: truncated PDNF equivalent to amino acids 1-425 of SEQ ID NO:2: truncated PDNF, amino acids 1-425 of SEQ ID NO:2 (protein, listed as Trypanosoma cruzi)
chain: MGKTVVVASRMFWLMFFVPLLLAICPSEPAYALAPGSSRVELFKRKNSTVPFEDKAGKVTERVVHSFRLPALVNVDGVMVAIADARYDTSNDNSLIDTVAKYSVDDGETWETQIAIKNSRVSSVSRVVDPTVIVKGNKLYVLVGSYYSSRSYWSSHGDARDWDILLAVGEVTKSTAGGKITASIKWGSPVSLKKFFPAEMEGMHTNQFLGGAGVAIVASNGNLVYPVQVTNKKKQVFSKIFYSEDDGKTWKFGKGRSDFGCSEPVALEWEGKLIINTRVDWKRRLVYESSDMEKPWVEAVGTVSRVWGPSPKSNQPGSQSSFTAVTIEGMRVMLFTHPLNFKGRWLRDRLNLWLTDNQRIYNVGQVSIGDENSAYSSVLYKDDKLYCLHEINTDEVYSLVFARLVGELRIIKSVLRSWKNWDSHL

Assays:
Trk = experiment: Pharmacological Trk inhibition of sPDNF-stimulated H9c2 cardiomyocytes; type: cell-based, rat; conditions: K252a 200 nM 1 hr pre-incubation, sPDNF 1 μg/ml 3 hr
Procedure: Pharmacological inhibition: H9c2 cardiomyocytes were stimulated with sPDNF (1 μg/ml, 3 hr) without pretreatment (sPDNF) or after pretreatment with K252a (200 nM, 1 hr) (K252a+sPDNF), and transcripts of MCP-1 (FIG. 9A) and FKN (FIG. 9B) quantified by qPCR. Chemokine gene expression was normalized to HPRT and fold change calculated relative to vehicle-treated cells. Bars represent mean±SD fold change expression of duplicate samples, *P<0.05 and **P<0.01; experiment performed three times, each giving similar results.
First, H9c2 cardiomyocytes were pre-incubated (1 hr) with the Trk antagonist K252a, which blocks Trk signaling by inhibiting Trk autophosphorylation (53), followed by stimulation (3 hr) with sPDNF (1 μg/ml) or vehicle PBS, and quantification of MCP-1 and FKN transcripts by qPCR.
H9c2 cells were pre-treated with 0.1% DMSO vehicle control or 200 nM K252a for 1 h prior to addition of sPDNF (1 μg/ml). Supernatants and cell monolayers were collected for quantification of secreted chemokines and cells were harvested for mRNA quantification by qPCR.

TrkA-positive PC12 cells = conditions: bacterially-expressed truncated PDNF; cited from earlier work

Molecule	effect on sPDNF stimulation of FKN transcripts (Trk)	effect on sPDNF stimulation of MCP-1 transcripts (Trk)	survival and differentiation of TrkA-positive PC12 cells (TrkA-positive PC12 cells)
COC(=O)[C@@]1(O)C[C@H]2O[C@]1(C)n1c3ccccc3c3c4c(c5c6ccccc6n2c5c31)C(=O)NC4 [K252a]	completely abrogated	completely abrogated	
B1			promoted survival and differentiation
B2			did not
